The values that follow come from patent publication US7595401B2, “Therapeutic compounds and their use in cancer” (Myriad Pharmaceuticals, Inc., priority 2006, dated 2009).

pIC50: −log10 of the molar value.

The subject of the first test is purified human Hsp90. Kind of test: Binding Assay: fluorescence polarization with BODIPY-labeled geldanamycin. As to conditions: 5 μM compound, BODIPY-GM 10 nM, Hsp90 30 nM. In short, it runs like this: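 Compounds in 2% DMSO final compete with 10 nM BODIPY-GM for 30 nM purified human Hsp90, incubated overnight at room temperature in pH 7.3 HEPES buffer containing Na2MoO4 and DTT. Polarization (mP, ex/em 485/530) normalized to DMSO gives percent inhibition; autofluorescence-confounded data excluded.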
A general note: Polarisation of emitted light reports the rotation of a fluorescent probe.
As usually defined, the % Inhibition is the drop in the measured response relative to a control, in per cent. The low end stands for a response near the control, the high end for a response far below the control. Regarding `COc1cc(CCn2c(Sc3cc(OC)ccc3OC)nc3c(N)ncnc32)cc(OC)c1` [Example 193, 9-[2-(3,5-dimethoxy-phenyl)-ethyl]-8-(2,5-dimethoxy-phenylsulfanyl)-9H-purin-6-ylamine], the “% Inhibition at 5 μM Compound Concentration” value (“% Inhibition” for short) stood at 39%.
As to `COc1cc(CCn2cnc(N)c3nc(Sc4cc(OC)ccc4OC)nc2-3)cc(OC)c1` [Example 194, 3-[2-(3,5-dimethoxy-phenyl)-ethyl]-8-(2,5-dimethoxy-phenylsulfanyl)-3H-purin-6-ylamine], the “% Inhibition” value stood at 0%.
`COc1cc(CCn2c(Sc3cc4c(cc3Br)OCO4)nc3c(N)ncnc32)cc(OC)c1` [Example 195, 8-(6-Bromo-benzo[1,3]dioxol-5-ylsulfanyl)-9-[2-(3,5-dimethoxy-phenyl)-ethyl]-9H-purin-6-ylamine]: the “% Inhibition” value is given as 80%.
Still for that read-out and setting: under `COc1cc(CCn2cnc(N)c3nc(Sc4cc5c(cc4Br)OCO5)nc2-3)cc(OC)c1` [Example 196, 8-(6-Bromo-benzo[1,3]dioxol-5-ylsulfanyl)-3-[2-(3,5-dimethoxy-phenyl)-ethyl]-3H-purin-6-ylamine] stands 10%; under `COc1ccc(OC)c(Sc2nc3c(N)ncn(CCc4ccsc4)c-3n2)c1` [Example 198, 8-(2,5-dimethoxy-phenylsulfanyl)-3-(2-thiophen-3-yl-ethyl)-3H-purin-6-ylamine], 18%.
Turning to `COc1ccc(OC)c(Sc2nc3c(N)ncn(CCc4cccs4)c-3n2)c1` [Example 200, 8-(2,5-dimethoxy-phenylsulfanyl)-3-(2-thiophen-2-yl-ethyl)-3H-purin-6-ylamine], the “% Inhibition” value stood at 18%.
Consider `Nc1ncn(CCc2ccsc2)c2nc(Sc3cc4c(cc3Br)OCO4)nc1-2` [Example 202, 8-(6-bromo-benzo[1,3]dioxol-5-ylsulfanyl)-3-(2-thiophen-3-yl-ethyl)-3H-purin-6-ylamine], for which the “% Inhibition” value came out at 9%.
Consider `Nc1ncn(CCc2cccs2)c2nc(Sc3cc4c(cc3Br)OCO4)nc1-2` [Example 204, 8-(6-bromo-benzo[1,3]dioxol-5-ylsulfanyl)-3-(2-thiophen-2-yl-ethyl)-3H-purin-6-ylamine], for which the “% Inhibition” value is 11%.
For `COc1ccc(OC)c(Sc2nc3c(N)ncnc3n2CCc2ccccc2[N+](=O)[O-])c1` [Example 205, 8-(2,5-Dimethoxy-phenylsulfanyl)-9-[2-(2-nitro-phenyl)-ethyl]-9H-purin-6-ylamine], the “% Inhibition” value stood at 80%.
For the molecule `COc1ccc(OC)c(Sc2nc3c(N)ncn(CCc4ccccc4[N+](=O)[O-])c-3n2)c1` [Example 206, 8-(2,5-dimethoxy-phenylsulfanyl)-3-[2-(2-nitro-phenyl)-ethyl]-3H-purin-6-ylamine], the “% Inhibition” value came to 0%.
On the same count and under the same terms, under `Nc1ncn(CCc2ccccc2[N+](=O)[O-])c2nc(Sc3cc4c(cc3Br)OCO4)nc1-2` [Example 208, 8-(6-bromo-benzo[1,3]dioxol-5-ylsulfanyl)-3-[2-(2-nitro-phenyl)-ethyl]-3H-purin-6-ylamine] stands 46%.
Take `Nc1ncn(CCc2ccccc2)c2nc(Cc3cc4c(cc3Br)OCO4)nc1-2` [Example 210, 8-(6-Bromo-benzo[1,3]dioxol-5-ylmethyl)-3-phenethyl-3H-purin-6-ylamine]: the “% Inhibition” value is on record as 8%.
The same measure, in the same setting: under `CC(C)(C)OC(=O)Nc1ccc(CCn2cnc(N)c3nc(Sc4cc5c(cc4Br)OCO5)nc2-3)cc1` [Example 212, (4-{2-[6-amino-8-(6-bromo-benzo[1,3]dioxol-5-ylsulfanyl)-purin-3-yl]-ethyl}-phenyl)carbamic acid tert-butyl ester] stands 4%; under `COc1ccc(OC)c(Sc2nc3c(N)ncn(CCc4ccc(NC(=O)OC(C)(C)C)cc4)c-3n2)c1` [Example 215, (4-{2-[6-amino-8-(2,5-dimethoxy-phenylsulfanyl)-purin-3-yl]-ethyl}-phenyl)-carbamic acid tert-butyl ester], 0%; under `COc1ccc(OC)c(Sc2nc3c(N)ncnc3n2CCc2ccc(N)cc2)c1` [Example 216, 9-[2-(4-Amino-phenyl)-ethyl]-8-(2,5-dimethoxy-phenylsulfanyl)-9H-purin-6-ylamine], 78%.

Staying with this test, now noted: BODIPY-GM 10 nM, Hsp90 30 nM.
A word on the pIC50: it is the IC50 on a negative log10 scale, so that one unit is a factor of ten. The molecule `COc1cc(CCn2c(Sc3cc(OC)ccc3OC)nc3c(N)ncnc32)cc(OC)c1` [Example 193, 9-[2-(3,5-dimethoxy-phenyl)-ethyl]-8-(2,5-dimethoxy-phenylsulfanyl)-9H-purin-6-ylamine] showed a pIC50 of 6.51.
As to `COc1cc(CCn2c(Sc3cc4c(cc3Br)OCO4)nc3c(N)ncnc32)cc(OC)c1` [Example 195, 8-(6-Bromo-benzo[1,3]dioxol-5-ylsulfanyl)-9-[2-(3,5-dimethoxy-phenyl)-ethyl]-9H-purin-6-ylamine], the pIC50 was 7.10.
Molecule `COc1ccc(OC)c(Sc2nc3c(N)ncnc3n2CCc2ccsc2)c1` [Example 197, 8-(2,5-Dimethoxy-phenylsulfanyl)-9-(2-thiophen-3-yl-ethyl)-9H-purin-6-ylamine] had a pIC50 of 6.77.
In turn, `COc1ccc(OC)c(Sc2nc3c(N)ncnc3n2CCc2cccs2)c1` [Example 199] gave a negative-log IC50 (pIC50) of 6.96.
Regarding `Nc1ncnc2c1nc(Sc1cc3c(cc1Br)OCO3)n2CCc1ccsc1` [Example 201, 8-(6-Bromo-benzo[1,3]dioxol-5-ylsulfanyl)-9-(2-thiophen-3-yl-ethyl)-9H-purin-6-ylamine], the negative logarithm of the IC50 (pIC50) is 7.14.
`Nc1ncnc2c1nc(Sc1cc3c(cc1Br)OCO3)n2CCc1cccs1` [Example 203, 8-(6-Bromo-benzo[1,3]dioxol-5-ylsulfanyl)-9-(2-thiophen-2-yl-ethyl)-9H-purin-6-ylamine]: the pIC50 was 7.05.
With `COc1ccc(OC)c(Sc2nc3c(N)ncnc3n2CCc2ccccc2[N+](=O)[O-])c1` [Example 205, 8-(2,5-Dimethoxy-phenylsulfanyl)-9-[2-(2-nitro-phenyl)-ethyl]-9H-purin-6-ylamine], the pIC50 was 6.62. Against the preceding molecule, the pIC50 is 0.43 log units lower.
In turn, `Nc1ncnc2c1nc(Sc1cc3c(cc1Br)OCO3)n2CCc1ccccc1[N+](=O)[O-]` [Example 207, 8-(6-Bromo-benzo[1,3]dioxol-5-ylsulfanyl)-9-[2-(2-nitro-phenyl)-ethyl]-9H-purin-6-ylamine] gave a pIC50 of 7.42.
`Nc1ncn(CCc2ccccc2[N+](=O)[O-])c2nc(Sc3cc4c(cc3Br)OCO4)nc1-2` [Example 208, 8-(6-bromo-benzo[1,3]dioxol-5-ylsulfanyl)-3-[2-(2-nitro-phenyl)-ethyl]-3H-purin-6-ylamine]: the negative logarithm of the IC50 (pIC50) was under 4.60.
Same read-out and setting: the result for `Nc1ncnc2c1nc(Cc1cc3c(cc1Br)OCO3)n2CCc1ccccc1` [Example 209, 8-(6-Bromo-benzo[1,3]dioxol-5-ylmethyl)-9-phenethyl-9H-purin-6-ylamine] reads 6.35; that for `CC(C)(C)OC(=O)Nc1ccc(CCn2c(Sc3cc4c(cc3Br)OCO4)nc3c(N)ncnc32)cc1` [Example 211, (4-{2-[6-Amino-8-(6-bromo-benzo[1,3]dioxol-5-ylsulfanyl)-purin-9-yl]-ethyl}-phenyl)carbamic acid tert-butyl ester], under 4.60; that for `COc1ccc(OC)c(Sc2nc3c(N)ncnc3n2CCc2ccc(NC(=O)OC(C)(C)C)cc2)c1` [Example 214, (4-{2-[6-Amino-8-(2,5-dimethoxy-phenylsulfanyl)-purin-9-yl]-ethyl}-phenyl)-carbamic acid tert-butyl ester], 6.02.
Regarding `COc1ccc(OC)c(Sc2nc3c(N)ncnc3n2CCc2ccc(N)cc2)c1` [Example 216, 9-[2-(4-Amino-phenyl)-ethyl]-8-(2,5-dimethoxy-phenylsulfanyl)-9H-purin-6-ylamine], the pIC50 was under 5.10.
The molecule `COc1ccc(OC)c(Sc2nc3c(N)ncnc3n2CCc2cccc(OC(F)(F)F)c2)c1` [Example 217, 8-(2,5-Dimethoxy-phenylsulfanyl)-9-[2-(3-trifluoromethoxy-phenyl)-ethyl]-9H-purin-6-ylamine] had a negative-log IC50 (pIC50) of under 5.00.
Same read-out and setting: under `COc1ccc(OC)c(Sc2nc3c(N)ncnc3n2CCc2c(F)c(F)c(F)c(F)c2F)c1` [Example 218, 8-(2,5-Dimethoxy-phenylsulfanyl)-9-(2-pentafluorophenyl-ethyl)-9H-purin-6-ylamine] stands under 5.52; under `COc1ccc(OC)c(Sc2nc3c(N)ncnc3n2CCc2cc(C(F)(F)F)cc(C(F)(F)F)c2)c1` [Example 219, 9-[2-(3,5-Bistrifluoromethyl-phenyl)-ethyl]-8-(2,5-dimethoxy-phenylsulfanyl)-9H-purin-6-ylamine], under 5.10.
